Laboratory results taken from patent publication US9909086B2, “Green glycine betaine derivative compounds and compositions containing same” (priority 2012, dated 2018).

What was measured:
[1] = aqueous solution; 20 seconds contact time; pure
[2] = Interfacial tension, emulsifying sunflower oil in water; assay type: physicochemical; settings: purified
[3] = Surface tension; assay type: physicochemical; settings: pure
Description: Surface properties of betainyl amino alkyl(ene) methane sulfonates and alkyl(ene) betainate methane sulfonate surfactants are set forth below in Table 5. […] Comparative examples are provided by the GLUCOPON surfactants (commercially available from BASF, formerly known as Cognis) which are alkyl polyglucosides having a carbon length as indicated.

[4] = Viscosity (thickening and gelling); assay type: physicochemical; settings: aqueous solution
Description: Table 15 below illustrates the thickening of GB stearic amine aqueous solution as a function of concentration and time.
The examples of Table 15 are compounds present in water alone and, thus, the viscosity continues to change. After a certain point, the viscosity will plateau and not change anymore. If the surfactant is provided at a predetermined concentration, the desired viscosity will be reached right away and not continue to increase due to the stability provided. Thus, generally, as the surfactant concentration increases, so does the initial viscosity. Also over a period of time, the viscosity increases. The viscosity can be controlled to terminate the viscosity increase, i.e., achieve a pre-determined viscosity, by adding salts to the composition. Preferred salts are sodium chloride, potassium chloride, magnesium, chloride, and lithium chloride. Another feature of the invention is the ability to combine GB surfactants with natural polysaccharides to form gel and pseudoplastic viscous liquids or gels. Examples of polysaccharides are agar, carregenan, natural gum, pectin, gelatin, starch, cellulose derivatives, cellulose derived from wood pulp fiber, lignin, etc. […]

[5] = Wetting properties, contact angles on treated substrates; assay type: physicochemical
[6] = Foamability; assay type: physicochemical; settings: concentration at CMC, flow rate 14 l/min
Description: The surfactants of the invention also have foaming ability. This foaming ability is able to be effectively manipulated, i.e., foaming density increased, based on hydrocarbon chain length.

[7] = surfactant concentration 1 % w/w
[8] = surfactant concentration 2 % w/w
[9] = surfactant concentration 3 % w/w
[10] = surfactant concentration 4 % w/w
[11] = surfactant concentration 5 % w/w
[12] = surfactant concentration 6 % w/w

Row | SMILES | IFT [2] [mN/m] | Surface Tension @ CMC [3] [mN/m] | Contact angle on treated substrate, Enamel Tiles ([5]; surfactant conc. 1 % (w/w)) [°] | Contact angle on treated substrate, Glass ([5]; surfactant conc. 1 % (w/w)) [°] | Contact angle on treated substrate, Kitchen Soil ([5]; surfactant conc. 1 % (w/w)) [°] | Contact angle on treated substrate, Soap Scum ([5]; surfactant conc. 1 % (w/w)) [°] | Contact angle on treated substrate, Enamel Tiles ([5]; surfactant conc. 3 % (w/w)) [°] | Contact angle on treated substrate, Glass ([5]; surfactant conc. 3 % (w/w)) [°] | Contact angle on treated substrate, Kitchen Soil ([5]; surfactant conc. 3 % (w/w)) [°] | Contact angle on treated substrate, Soap Scum ([5]; surfactant conc. 3 % (w/w)) [°] | further results
1 | CCCCCCCCCCCCCCCCCCNC(=O)C[N+](C)(C)C.CS(=O)(=O)[O-] [GB Stearic amide, Betainyl amino octadecane methane sulfonate] | 5.2 | 39 | 35.4 | 23.1 | 39.7 | 31.6 | 27.1 | 19.4 | 34.6 | 34.3 | Bathroom Soap Scum Solubilized [1]: 35%; Initial Viscosity [4, 7]: 120 cP; Viscosity after 15 days [4, 7]: 160 cP; Initial Viscosity [4, 8]: 160 cP; Viscosity after 15 days [4, 8]: 639 cP; Initial Viscosity [4, 9]: 160 cP; Viscosity after 15 days [4, 9]: 807 cP; Initial Viscosity [4, 10]: 2259 cP; Viscosity after 15 days [4, 10]: 3626 cP; Initial Viscosity [4, 11]: 3039 cP; Viscosity after 15 days [4, 11]: 6079 cP; Initial Viscosity [4, 12]: 5279 cP; Viscosity after 15 days [4, 12]: 8851 cP
2 | CCCCCCCC/C=C\CCCCCCCCNC(=O)C[N+](C)(C)C.CS(=O)(=O)[O-] [GB Oleic amide, (Z)-betainyl amino octadec-9-ene methane sulfonate] | 5.5 | 36 | 27.6 | 22.6 | 46.4 | 31.1 | 26.8 | 18.8 | 38.1 | 31.3 | –
3 | CCCCCCCCCCCCNC(=O)C[N+](C)(C)C.CS(=O)(=O)[O-] [GB Lauric amide, Betainyl amino dodecane methane sulfonate] | – | 38 | – | – | – | – | – | – | – | – | –
4 | CCCCCCCCCCCCCCNC(=O)C[N+](C)(C)C.CS(=O)(=O)[O-] [GB Myristic amide, Betainyl amino tetradecane methane sulfonate] | – | 38 | – | – | – | – | – | – | – | – | –
5 | CCCCCCCCCCCCCCCCNC(=O)C[N+](C)(C)C.CS(=O)(=O)[O-] [GB Palmitic amide, Betainyl amino hexadecane methane sulfonate] | – | 37 | – | – | – | – | – | – | – | – | –
6 | CCCCCCCC/C=C\CCCCCCCCNC(=O)C[N+](C)(C)C.CS(=O)(=O)[O-] [GB Oleic amide C18:1) pure, (Z)-betainyl amino octadec-9-ene methane sulfonate, pure] | – | – | – | – | – | – | – | – | – | – | Foam density [6]: 18 g/L; Time t: the time to fill 2 liters [6]: 85 s
